Reference: PMC9223764, “In Vitro Selection and Characterization of HIV-1 Variants with Increased Resistance to LP-40, Enfuvirtide-Based Lipopeptide Inhibitor” (International Journal of Molecular Sciences, 2022)
Where a SMILES comes first, the peptide text is derived from it. The star is where a group is joined. Palmitoyl = CCCCCCCCCCCCCCCC(=O)*

How the values were obtained:
Type in all cases: cell-based
[1] = test system: HIV-1 NL4-3 gp41 I37T pseudovirus; conditions: Table 3; for Fold change in IC50: I37T relative to WT NL4-3; for IC50: I37T, TZM-bl cells, 48 h, luciferase, means, triplicate, repeated three times
Method: (§1) Viral RNA was extracted from the supernatant, and, after reverse transcription, the cDNA was amplified using PCR. These amplified DNA were connected to the T-Easy vector and transformed to Trans 2-Blue Chemically Competent Cells. These sequences were determined via sequencing. The expression plasmids, which contained different HIV-1NL4-3 Env mutants, were constructed using DNA assembly (NEBuilder® HiFi DNA Assembly Master Mix). In brief, two primers were used to amplify Env, and the other two primers were used to amplify the vector fragment. The products of PCR were purified with a 20–25 bp overlap in the terminal of Env and the vector fragment Env and the vector fragment were added to the DNA assembly master mix at […] for 15 min and then transformed to Trans 2-Blue Chemically Competent Cells. Additionally, a single-point mutation was generated using double-stranded DNA templates and a selection of mutants with a restriction enzyme (DpnI) as described previously.
(§2) The infectivity of HIV Env mutants and the inhibitory activities of membrane fusion inhibitors on mutants in TZM-bl cells were measured using a single-cycle infection assay as described previously. Briefly, the HIV pseudovirus was packed using an Env-coding plasmid, and pSG3ΔEnv was co-transfected into HEK293T cells. pSG3ΔEnv encodes an Env-defective, luciferase-expressing HIV-1 genome. After the pseudoviruses were harvested and filtrated, the amount of pseudoviruses was fixed via P24 antigen, and their infectivity was determined in TZM-bl cells. In order to measure the inhibitory activities of the inhibitors, inhibitors diluted serially 3-fold were mixed with an equal volume of pseudoviruses, and then 100 µL 1 × 10^5/mL TZM-bl cells were added to the mixture and incubated at 37 °C with 5% CO2 for 48 h. After that, TZM-bl cells were lysed using reporter lysis buffer, and IC50 values were calculated according to luciferase activity measured by luciferase assay reagents and a luminescence counter (Promega, Madison, WI, USA).

[2] = test system: HIV-1 NL4-3 gp41 I69V pseudovirus; conditions: Table 3; for Fold change in IC50: I69V relative to WT NL4-3; for IC50: I69V, TZM-bl cells, 48 h, luciferase, means, triplicate, repeated three times
Method: as §1, §2

[3] = test system: HIV-1 NL4-3 gp41 L33S pseudovirus; conditions: Table 3; for Fold change in IC50: L33S relative to WT NL4-3; for IC50: L33S, TZM-bl cells, 48 h, luciferase, means, triplicate, repeated three times
Method: as §1, §2

[4] = test system: HIV-1 NL4-3 gp41 V38A/N42T pseudovirus; conditions: Table 3; for Fold change in IC50: V38A/N42T relative to WT NL4-3; for IC50: V38A/N42T, TZM-bl cells, 48 h, luciferase, means, triplicate, repeated three times
Method: (§3) We selected LP-40-induced drug resistance typical point mutations and combination mutation pseudoviruses to evaluate the current representative membrane fusion inhibitors.
as §2

[5] = test system: HIV-1 NL4-3 gp41 L33S/I37T pseudovirus; conditions: Table 3; for Fold change in IC50: L33S/I37T relative to WT NL4-3; for IC50: L33S/I37T, TZM-bl cells, 48 h, luciferase, means, triplicate, repeated three times
Method: as §3, §2

[6] = test system: HIV-1 NL4-3 gp41 NDQEEDYN pseudovirus; conditions: Table 3; for IC50: NDQEEDYN (E109N, N113D, E119Q, D121E, N125E, S129D, H132Y, S133N), TZM-bl cells, 48 h, luciferase, means, triplicate, repeated three times; for Fold change in IC50: NDQEEDYN relative to WT NL4-3
Method: as §3, §2

[7] = test system: HIV-1 NL4-3 gp41 NDQEEDYN/L33S/I37T pseudovirus; conditions: Table 3; for Fold change in IC50: NDQEEDYN/L33S/I37T relative to WT NL4-3; for IC50: NDQEEDYN/L33S/I37T, TZM-bl cells, 48 h, luciferase, means, triplicate, repeated three times
Method: as §3, §2

[8] = test system: HIV-1 NL4-3 gp41 NDQEEDYN/L33S/V38A/N42T pseudovirus; conditions: Table 3; for Fold change in IC50: NDQEEDYN/L33S/V38A/N42T relative to WT NL4-3; for IC50: NDQEEDYN/L33S/V38A/N42T, TZM-bl cells, 48 h, luciferase, means, triplicate, repeated three times
Method: as §3, §2

[9] = test system: HIV-1 NL4-3 gp41 L33S/V38A/N42T pseudovirus; conditions: Table 3; for Fold change in IC50: L33S/V38A/N42T relative to WT NL4-3; for IC50: L33S/V38A/N42T, TZM-bl cells, 48 h, luciferase, means, triplicate, repeated three times
Method: as §3, §2

[10] = test system: HIV-1 NL4-3 pseudovirus (WT); conditions: Table 3; for IC50: WT NL4-3, TZM-bl cells, 48 h, luciferase, means, triplicate, repeated three times; for Fold change in IC50: WT NL4-3 reference
Method: as §2

Row | Compound | Fold change in IC50 [1] [fold] | IC50 [1] [nM] | Fold change in IC50 [2] [fold] | IC50 [2] [nM] | Fold change in IC50 [3] [fold] | IC50 [3] [nM] | Fold change in IC50 [4] [fold] | IC50 [4] [nM] | Fold change in IC50 [5] [fold] | IC50 [5] [nM] | IC50 [6] [nM] | Fold change in IC50 [6] [fold] | Fold change in IC50 [7] [fold] | IC50 [7] [nM] | Fold change in IC50 [8] [fold] | IC50 [8] [nM] | Fold change in IC50 [9] [fold] | IC50 [9] [nM] | IC50 [10] [nM] | Fold change in IC50 [10] [fold]
1 | CC[C@H](C)[C@H](NC(=O)[C@H](C)NC(=O)[C@H](CCCNC(=N)N)NC(=O)[C@H](CC(=O)O)NC(=O)[C@H](Cc1c[nH]c2ccccc12)NC(=O)[C@H](C)NC(=O)[C@H](CCC(=O)O)NC(=O)[C@H](Cc1c[nH]c2ccccc12)NC(=O)[C@@H](NC(=O)[C@@H](NC(C)=O)[C@@H](C)O)[C@@H](C)O)C(=O)N[C@@H](C)C(=O)N[C@@H](CCC(=O)O)C(=O)N[C@@H](Cc1ccc(O)cc1)C(=O)N[C@@H](C)C(=O)N[C@@H](C)C(=O)N[C@@H](CCCNC(=N)N)C(=O)N[C@H](C(=O)N[C@@H](CCC(=O)O)C(=O)N[C@@H](C)C(=O)N[C@@H](CC(C)C)C(=O)N[C@H](C(=O)N[C@@H](CCCNC(=N)N)C(=O)N[C@@H](C)C(=O)N[C@@H](C)C(=O)N[C@@H](CCC(N)=O)C(=O)N[C@@H](CCC(=O)O)C(=O)N[C@@H](CCC(N)=O)C(=O)N[C@@H](CCC(N)=O)C(=O)N[C@@H](CCC(=O)O)C(=O)N[C@@H](CCCCN)C(=O)N[C@@H](CC(N)=O)C(=O)N[C@@H](CCC(=O)O)C(=O)N[C@@H](C)C(=O)N[C@@H](C)C(=O)N[C@@H](CC(C)C)C(=O)N[C@@H](CCCNC(=N)N)C(=O)N[C@@H](CCC(=O)O)C(=O)N[C@@H](CC(C)C)C(N)=O)[C@@H](C)CC)[C@@H](C)CC [T2635] | 1.33 | 0.97 | 1.04 | 0.75 | 1.97 | 1.43 | 0.77 | 0.56 | 2.07 | 1.51 | 1.94 | 2.67 | 7.49 | 5.44 | 7.85 | 5.73 | 1.78 | 1.3 | 0.73 | 1.00
2 | CCCCCCCCCCCCCCCC(=O)NCCCC[C@H](NC(=O)[C@H](CC(C)C)NC(=O)[C@H](CC(C)C)NC(=O)[C@H](CCC(=O)O)NC(=O)[C@H](CCC(=O)O)NC(=O)[C@@H](NC(=O)[C@H](CCCCN)NC(=O)[C@H](CCCCN)NC(=O)[C@H](CCC(=O)O)NC(=O)[C@H](CC(C)C)NC(=O)[C@H](CCC(=O)O)NC(=O)[C@H](CCC(=O)O)NC(=O)[C@@H](NC(=O)[C@H](CCCCN)NC(=O)[C@H](CCCCN)NC(=O)[C@H](CCC(=O)O)NC(=O)[C@H](Cc1c[nH]c2ccccc12)NC(=O)[C@H](CCC(=O)O)NC(=O)[C@H](CCC(=O)O)NC(=O)[C@H](Cc1c[nH]c2ccccc12)NC(=O)[C@@H](NC(=O)[C@H](CCSC)NC(=O)[C@H](CCC(=O)O)NC(C)=O)[C@@H](C)O)C(C)C)[C@@H](C)CC)C(N)=O [LP-19] (Ac-EMTWEEWEKKVEELEKKIEELLK(Palmitoyl)-NH2) | 1.62 | – | 1.00 | – | 1.61 | – | 0.66 | – | 1.25 | – | – | 1.68 | 3.04 | – | 1.48 | – | 0.56 | – | – | 1.00
3 | CC[C@H](C)[C@H](NC(=O)[C@H](CCC(=O)O)NC(=O)[C@H](CCCNC(=N)N)NC(=O)[C@H](CCC(=O)O)NC(=O)[C@H](Cc1c[nH]c2ccccc12)NC(=O)[C@@H](NC(=O)[C@H](CCC(=O)O)NC(=O)[C@H](Cc1c[nH]c2ccccc12)NC(=O)[C@H](CO)NC(C)=O)[C@@H](C)O)C(=O)N[C@@H](CCC(=O)O)C(=O)N[C@@H](CC(N)=O)C(=O)N[C@@H](Cc1ccc(O)cc1)C(=O)N[C@H](C(=O)N[C@@H](CCCNC(=N)N)C(=O)N[C@@H](CCC(N)=O)C(=O)N[C@H](C(=O)N[C@@H](Cc1ccc(O)cc1)C(=O)N[C@@H](CCCNC(=N)N)C(=O)N[C@H](C(=O)N[C@@H](CC(C)C)C(=O)N[C@@H](CCC(=O)O)C(=O)N[C@@H](CCC(=O)O)C(=O)N[C@@H](CO)C(=O)N[C@@H](CCC(N)=O)C(=O)N[C@@H](CCC(=O)O)C(=O)N[C@@H](CCC(N)=O)C(=O)N[C@@H](CCC(N)=O)C(=O)N[C@@H](CC(=O)O)C(=O)N[C@@H](CCCNC(=N)N)C(=O)N[C@@H](CC(N)=O)C(=O)N[C@@H](CCC(=O)O)C(=O)N[C@@H](CCCNC(=N)N)C(=O)N[C@@H](CC(=O)O)C(=O)N[C@@H](CC(C)C)C(=O)N[C@@H](CC(C)C)C(=O)N[C@@H](CCC(=O)O)C(N)=O)[C@@H](C)CC)[C@@H](C)CC)[C@@H](C)O [SFT] (Ac-SWETWEREIENYTRQIYRILEESQEQQDRNERDLLE-NH2) | 7.21 | 11.2 | 1.07 | 1.67 | 3.00 | 4.67 | 74.48 | 116 | 14.72 | 23 | 8.03 | 5.15 | 70.71 | 110 | 473.54 | 739 | 166.68 | 260 | 1.56 | 1.00
